Measurements from article PMC9318133 (International Journal of Molecular Sciences, 2022).

Assays:
[1] = test system: fEPSP of CA1 area of mouse hippocampal slice; assay: Electrophysiological recording of fEPSP in hippocampal slices; type: cell-based; conditions: for fEPSP slope, % changes compared to control condition: steady state
Description: Procedures for tissue preparation are the same as those described by Ossato et al., 2016 [45]. In brief, after mouse decapitation, the head was immediately chilled in refrigerated artificial cerebrospinal fluid (aCSF, 0 °C) of the following composition (in mM): NaCl, 126; KCl, 2; KH2PO4, 1.25; NaHCO3, 26; MgSO4, 2.0; CaCl2, 2.5; d-glucose, 10. After 1 min, the brain was extracted to isolate the hippocampus and then placed in ice-cold artificial cerebrospinal fluid (aCSF). All solutions were saturated with 95% O2/5% CO2. Transverse hippocampal slices (425 μm thick) were cut with a tissue chopper and then placed for almost 90 min in a Haas-style incubation chamber for recovery before recording.
A single slice was transferred into a submerged-type recording chamber (3 mL total volume) and continuously superfused (3.0 mL/min) with warmed (32–33 °C) aCSF. WINLTP 2.10 computer software was used for stimulus triggering, PC recording, and analysis. Synaptic responses of CA1 pyramidal neurons were elicited by electrical stimulation of the Schaffer collateral/commissural pathway. Single stimulation pulses (80 µs duration; 0.05 Hz) were delivered by mean of a concentric bipolar electrode (o.d. 125 μm, FHC, USA) connected to a Grass S11 stimulator driving a PSIU6 constant current stimulus isolation unit. To record the fEPSPs, borosilicate glass electrodes fabricated using a microelectrode puller (P97, Sutter Instruments) and filled with aCSF (1.5 ± 0.5 MΩ), inserted in the distal third of the stratum radiatum and 200–300 µm away from stimulating electrodes, were used. The maximal fEPSPs response was reached by adjusting the recording electrode depth. Recorded potentials were amplified (Axoprobe 1A DC-coupled—Cyberamp 320, Molecular Devices, Sunnyvale, CA, USA) and filtered (5.0 kHz) prior to A/D conversion. Upon 10 min of stable synaptic response, a stimulus–response curve (SRC) was generated as previously described to extrapolate a stimulation intensity evoking 70% of maximal fEPSP, to be used throughout the experiment. […] To investigate whether the vehicle had any effect on synaptic activity, the superfusion inlet was switched to a reservoir containing aCSF plus the amount of vehicle present for the corresponding drug concentration (sham application), before switching to the solution also including the drug, for comparison. All reservoirs and tubing were on glass or Teflon to avoid the capturing of cannabinoids by plastic or silicon parts.
We analyzed data from in vitro recordings as previously described. […] Effect of treatment was considered steady state when stable +/− 5% for 10 min.

human CB1 receptors = target: T1, human CB1 receptors (Homo sapiens, UniProt P21554); assay: [3H]-CP-55,940 competition binding, CHO cell membranes transfected with human CB1 receptors
T1 construct: host or cells: CHO cells
Description: To obtain membranes, cells were washed with phosphate-buffered saline (PBS) and scraped off with ice-cold hypotonic buffer (5 mM Tris HCl, 2 mM EDTA, pH 7.4). The cell suspension was homogenized with a Polytron and then centrifuged for 30 min at 40,000× g. The membrane pellet was suspended in 50 mM Tris HCl buffer (pH 7.4) containing 2.5 mM ethylenediaminetetraacetic acid (EDTA), 5 mM MgCl2, and 0.5 mg/mL bovine serum albumin (BSA) for CB1 receptors or in 50 mM Tris HCl (pH 7.4), 1 mM EDTA, 5 mM MgCl2, and 0.5% BSA for CB2 receptors.
For human cannabinoid receptors, membranes obtained from CHO cells transfected with human CB1 or CB2 receptors (2 µg protein/100 µL) were used. Competition binding experiments at murine cannabinoid receptors were performed with mouse brain membranes (40 µg protein/100 µL) or with mouse spleen membranes (80 µg protein/100 µL) for CB1 receptors or CB2 receptors, respectively. […] Bound and free radioactivity were separated by filtering the assay mixture through Whatman GF/C glass fiber filters using a Brandel cell harvester (Brandel Instruments, Unterföhring, Germany).
The protein concentration was determined according to a Bio-Rad method with bovine serum albumin as a reference standard. Inhibitory binding constants, Ki, were calculated from the IC50 values according to the Cheng and Prusoff equation:Ki = IC50/(1 + [C*]/KD*) where [C*] is the concentration of the radioligand and KD* its dissociation constant. Functional experiments were analyzed by non-linear regression analysis using the equation for a sigmoid concentration–response curve (GraphPad Prism, San Diego, CA, USA). All the data are expressed as the mean ± SEM of three independent experiments.

[2] = Plasma (and brain) levels of JWH-175 and JWH-018 in mice by LC-MS/MS; type: in vivo, mouse; conditions: for presence in the brain tissue of mice systemically treated with JWH-175: data not shown
Description: For the in vivo studies, three different groups of mice were selected. […] Urine specimens were collected from mice individually placed inside metabolic cages (Ugo Basile SRL, Gemonio (VA), Italy) with free access to water and food. The same dose of JWH-175 was administered to the second group, and behavioral tests were performed before the blood collection. Tests and sampling were carried out, at 0, 30, 60, and 300 min, on a sub-group of six mice at each time interval. The same behavioral studies and blood sampling were performed on the third group, to which JWH-018 (10 mg/kg) was injected. Blood samples (mean total volume: 500 μL) were collected by submandibular blood collection technique into 1 mL vials containing EDTA (4 mg/mL of blood) as preservative and anticoagulant. After each blood withdrawal, an equal volume of saline solution was subcutaneously injected into mice to maintain volume and osmotic homeostasis. Plasma from collected blood and urine samples were stocked at −20 °C until the analysis.
For blood metabolic profile, samples were centrifugated at 9000× g rpm for 8 min to obtain plasma. Then, 200 µL of the supernatant was added to 500 μL of acetonitrile and centrifugated at 13,000× g rpm for 3 min. The aqueous layer was then collected and added to 50 μL of internal standard solution (10 μg/mL) and 500 μL of phosphate buffer (0.8 M, pH 7.4). Samples were then incubated for 1 h at 55 °C. After hydrolysis, samples were extracted with 5 mL of ethyl acetate. The organic solvent was then dried under nitrogen flow at 40 °C, and the dry residue was resolved in 50 μL of mobile phase and an aliquot of 10 µL was injected into the LC-MS systems.
Samples were analyzed using an Agilent 1200 series high-performance liquid chromatography (HPLC) instrument equipped with a SUPELCO C18 column (15 cm × 2.1 mm × 5 µm) coupled with a Sciex 5500QTRAP triple quadrupole mass spectrometer (Sciex, Milan, Italy) with an ESI source operated in positive ionization mode. Analyses were carried out at a constant flow rate of 250 µL/min using ultra-purified water, 0.1% formic acid (A), and acetonitrile 0.1% formic acid (B) as mobile phase. The gradient started at 5% eluent B, was increased to 65% eluent B in 7 min and after 4 min to 95% eluent B in 2 min, held for 4.5 min, decreased to starting conditions of 5% eluent B in 0.31 min, and held for 2 min for re-equilibration
Multiple reaction monitoring (MRM) was used as the acquisition mode (see Table 3). The MRM method was optimized starting from the protocol employed in our laboratory.

T1 sequence (P21554 whole entry): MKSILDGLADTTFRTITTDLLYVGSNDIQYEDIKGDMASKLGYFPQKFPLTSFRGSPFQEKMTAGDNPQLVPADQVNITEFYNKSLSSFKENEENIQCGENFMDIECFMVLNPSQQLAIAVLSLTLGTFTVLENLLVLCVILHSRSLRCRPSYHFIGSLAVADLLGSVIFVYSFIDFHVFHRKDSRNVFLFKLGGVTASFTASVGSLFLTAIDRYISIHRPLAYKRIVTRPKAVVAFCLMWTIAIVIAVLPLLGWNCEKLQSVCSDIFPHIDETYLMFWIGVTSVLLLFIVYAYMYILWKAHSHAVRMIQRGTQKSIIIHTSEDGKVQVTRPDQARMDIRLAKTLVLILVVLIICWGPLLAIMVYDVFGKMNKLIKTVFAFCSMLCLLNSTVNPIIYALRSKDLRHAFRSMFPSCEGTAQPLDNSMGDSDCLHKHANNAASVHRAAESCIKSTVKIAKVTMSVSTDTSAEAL

SMILES | fEPSP slope, % changes compared to control condition ([1]; 0.1 µM) | fEPSP slope, % changes compared to control condition ([1]; 0.3 µM) | fEPSP slope, % changes compared to control condition ([1]; 1 µM, last 3 min of recording) | selectivity index (ratio between the Ki value to human CB2 and the Ki value to human CB1) (human CB1 receptors; human CB2 / human CB1) | fold higher affinity than JWH-175 at human CB1 receptors (human CB1 receptors; ratio of Ki values, CHO cell membranes) | time of peak plasmatic concentration of JWH-018 ([2]; JWH-018 10 mg/kg i.p., mouse plasma) | presence in the brain tissue of mice systemically treated with JWH-175 [2] | effect on fEPSP ([1]; 0.01−0.3 µM) | times less potent than JWH-018 in inhibiting fEPSP ([1]; CA1 hippocampal slices, 0.01–1 µM) | Ki (human CB1 receptors) | time after administration within which JWH-175 itself was detected in plasma ([2]; JWH-175 10 mg/kg i.p., mouse plasma)
CCCCCn1cc(C(=O)c2cccc3ccccc23)c2ccccc21 [JWH-018, 1-naphthalenyl(1-pentyl-1H-indol-3-yl)-methanone] | −34.7 ± 7.9% | −40.4 ± 8.4% | −48.8 ± 7.6% | 0.9 | 2.71 fold | 30 min | presence |  |  |  | 
CCCCCn1cc(Cc2cccc3ccccc23)c2ccccc21 [JWH-175, 3-(1-naphthalenylmethyl)-1-pentyl-1H-indole] |  |  | −23.7 ± 5.7% |  |  |  | only traces | failed to affect fEPSP | about 10 times | 25.8 ± 1.9 nM | ≤ 30 min
